From patent US20080161232A1, “C5a Receptor Antagonist” (JERINI AG, priority 2005, published 2008)
Starred links: 1 amine or outer side, 2 acyl side, 3 side chain; linkers in the order of their positions; H or OH if unused. Positions of bridges follow the written chain, without caps; N, C: chain ends. Non-standard residues stand in square brackets, D forms with d. Residues, ends and D or L forms follow the SMILES beside them. *: point of attachment. X2 = O=C([C@H](CCCN(C1=NCCN1)C1=NCCN1)N[*:1])[*:2]; Orn(2-imidazolinyl) = N[C@@H](CCCNC1=NCCN1)C(=O)O; X7 = CC(=O)NCS(=O)(=O)C[C@H](N[*:1])C(=O)[*:2]; Phe(3-Cl) = N[C@@H](Cc1cccc(Cl)c1)C(=O)O; X3 = O=C([C@H](CCNC1=NCCN1)N[*:1])[*:2]; Phe(4-F) = N[C@@H](Cc1ccc(F)cc1)C(=O)O; X4 = O=C([C@H](CNC1=NCCN1)N[*:1])[*:2]; Bta = N[C@@H](Cc1csc2ccccc12)C(=O)O; Hyp = O=C(O)[C@@H]1C[C@@H](O)CN1; d(hLeu) = CC(C)CC[C@@H](N)C(=O)O; Tic = O=C(O)[C@@H]1Cc2ccccc2CN1; Cit = NC(=O)NCCC[C@H](N)C(=O)O; dCha = N[C@H](CC1CCCCC1)C(=O)O; Nle = CCCC[C@H](N)C(=O)O; Orn = NCCC[C@H](N)C(=O)O; Aze = O=C(O)[C@@H]1CCN1; Dab = NCC[C@H](N)C(=O)O; Dap = NC[C@H](N)C(=O)O; Ms = CS(=O)(=O)*

Target: T1, human C5aR(CD88) (Homo sapiens, UniProt P21730)
T1 construct: expressed in transfected cells; host or cells: rat basophilic leukemia cells (RBL)
T1 sequence (P21730 1-350): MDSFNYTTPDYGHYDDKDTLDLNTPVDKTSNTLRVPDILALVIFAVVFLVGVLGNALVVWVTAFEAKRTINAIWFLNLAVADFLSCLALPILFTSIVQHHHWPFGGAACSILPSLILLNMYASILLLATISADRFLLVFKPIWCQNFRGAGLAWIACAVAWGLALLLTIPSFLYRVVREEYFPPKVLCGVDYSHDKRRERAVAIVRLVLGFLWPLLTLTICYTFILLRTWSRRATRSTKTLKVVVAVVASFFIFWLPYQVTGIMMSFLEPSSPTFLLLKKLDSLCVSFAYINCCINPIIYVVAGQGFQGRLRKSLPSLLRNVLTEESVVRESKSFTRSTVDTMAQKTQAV
Assay: Determination of the IC50 value in an enzyme release assay (functional assay, antagonistic activity)
Type: cell-based
Settings: antagonistic activity; IC50 group in enzyme release assay, RBL cells expressing human C5aR(CD88); read-out: activity (group)

Row | SMILES | IC50
1 | CC(=O)N[C@@H](Cc1ccccc1)C(=O)N[C@H]1CCCNC(=O)[C@H](Cc2ccccc2)NC(=O)[C@H](Cc2csc3ccccc23)NC(=O)[C@@H](CCC(C)C)NC(=O)[C@@H]2CCCN2C1=O [Compound 197, Ac-Phe-[Orn-Pro-hle-Bta-Phe]] (Ac-F[Orn]P[d(hLeu)][Bta]F; lactam 2-C) | 0.05 to 0.2 µM
2 | CC(=O)N[C@@H](Cc1ccccc1)C(=O)N[C@H]1CCCNC(=O)[C@H](Cc2ccccc2)NC(=O)[C@H](Cc2ccc(F)cc2)NC(=O)[C@@H](CCC(C)C)NC(=O)[C@@H]2CCCN2C1=O [Compound 198, Ac-Phe-[Orn-Pro-hle-Pff-Phe]] (Ac-F[Orn]P[d(hLeu)][Phe(4-F)]F; lactam 2-C) | 0.05 to 0.2 µM
3 | CCCC[C@@H]1NC(=O)[C@H](Cc2c[nH]c3ccccc23)NC(=O)[C@@H](CCC(C)C)NC(=O)[C@@H]2CCCN2C(=O)[C@@H](NC(=O)[C@H](Cc2ccccc2)NC(C)=O)CCCNC1=O [Compound 199, Ac-Phe-[Orn-Pro-hle-Trp-Nle]] (Ac-F[Orn]P[d(hLeu)]W[Nle]; lactam 2-C) | 0.02 to 0.05 µM
4 | CCCC[C@@H]1NC(=O)[C@H](Cc2c[nH]c3ccccc23)NC(=O)[C@@H](CC2CCCCC2)NC(=O)[C@H](CO)NC(=O)[C@@H](NC(=O)[C@H](Cc2ccccc2)NC(C)=O)CCCNC1=O [Compound 200, Ac-Phe-[Orn-Ser-cha-Trp-Nle]] (Ac-F[Orn]S[dCha]W[Nle]; lactam 2-C) | 0.05 to 0.2 µM
5 | CCCC[C@@H]1NC(=O)[C@H](Cc2c[nH]c3ccccc23)NC(=O)[C@@H](CCC(C)C)NC(=O)[C@H](CO)NC(=O)[C@@H](NC(=O)[C@H](Cc2ccccc2)NC(C)=O)CCCNC1=O [Compound 202, Ac-Phe-[Orn-Ser-hle-Trp-Nle]] (Ac-F[Orn]S[d(hLeu)]W[Nle]; lactam 2-C) | 0.05 to 0.2 µM
6 | CCCC[C@@H]1NC(=O)[C@H](Cc2c[nH]c3ccccc23)NC(=O)[C@@H](CC2CCCCC2)NC(=O)[C@H]([C@@H](C)O)NC(=O)[C@@H](NC(=O)[C@H](Cc2ccccc2)NC(C)=O)CCCNC1=O [Compound 203, Ac-Phe-[Orn-Thr-cha-Trp-Nle]] (Ac-F[Orn]T[dCha]W[Nle]; lactam 2-C) | 0.05 to 0.2 µM
7 | CCCC[C@@H]1NC(=O)[C@H](Cc2c[nH]c3ccccc23)NC(=O)[C@@H](CC2CCCCC2)NC(=O)[C@@H]2Cc3ccccc3CN2C(=O)[C@@H](NC(=O)[C@H](Cc2ccccc2)NC(C)=O)CCCNC1=O [Compound 205, Ac-Phe-[Orn-Tic-cha-Trp-Nle]] (Ac-F[Orn][Tic][dCha]W[Nle]; lactam 2-C) | 0.05 to 0.2 µM
8 | CC(=O)N[C@@H](Cc1ccccc1)C(=O)N[C@@H](C)C(=O)N1CCC[C@H]1C(=O)N[C@H](CC1CCCCC1)C(=O)N[C@@H](Cc1csc2ccccc12)C(=O)N[C@@H](Cc1ccccc1)C(N)=O [Compound 206, Ac-Phe-Ala-Pro-cha-Bta-Phe-NH2] (Ac-FAP[dCha][Bta]F-NH2) | 0.05 to 0.2 µM
9 | CC(=O)N[C@@H](Cc1ccccc1)C(=O)N[C@@H](CCCNC(=N)N)C(=O)N1CCC[C@H]1C(=O)N[C@H](CCC(C)C)C(=O)N[C@@H](Cc1csc2ccccc12)C(=O)N[C@@H](Cc1ccccc1)C(N)=O [Compound 207, Ac-Phe-Arg-Pro-hle-Bta-Phe-NH2] (Ac-FRP[d(hLeu)][Bta]F-NH2) | 0.05 to 0.2 µM
10 | CC(=O)N[C@@H](Cc1ccccc1)C(=O)N[C@@H](CCCNC(=N)N)C(=O)N1CCC[C@H]1C(=O)N[C@H](CCC(C)C)C(=O)N[C@@H](Cc1cccc(Cl)c1)C(=O)N[C@@H](Cc1ccccc1)C(N)=O [Compound 208, Ac-Phe-Arg-Pro-hle-Mcf-Phe-NH2] (Ac-FRP[d(hLeu)][Phe(3-Cl)]F-NH2) | 0.05 to 0.2 µM
11 | CC(=O)N[C@@H](Cc1ccccc1)C(=O)N[C@@H](CCCNC(N)=O)C(=O)N1C[C@H](O)C[C@H]1C(=O)N[C@H](CCC(C)C)C(=O)N[C@@H](Cc1csc2ccccc12)C(=O)N[C@@H](Cc1ccccc1)C(N)=O [Compound 209, Ac-Phe-Cit-Hyp-hle-Bta-Phe-NH2] (Ac-F[Cit][Hyp][d(hLeu)][Bta]F-NH2) | 0.05 to 0.2 µM
12 | CC(=O)N[C@@H](Cc1ccccc1)C(=O)N[C@@H](CCCNC(N)=O)C(=O)N1CCC[C@H]1C(=O)N[C@H](CC1CCCCC1)C(=O)N[C@@H](Cc1csc2ccccc12)C(=O)N[C@@H](Cc1ccccc1)C(N)=O [Compound 210, Ac-Phe-Cit-Pro-cha-Bta-Phe-NH2] (Ac-F[Cit]P[dCha][Bta]F-NH2) | 0.05 to 0.2 µM
13 | CC(=O)N[C@@H](Cc1ccccc1)C(=O)N[C@@H](CCCNC(N)=O)C(=O)N1CCC[C@H]1C(=O)N[C@H](CCC(C)C)C(=O)N[C@@H](Cc1csc2ccccc12)C(=O)N[C@@H](Cc1ccccc1)C(N)=O [Compound 211, Ac-Phe-Cit-Pro-hle-Bta-Phe-NH2] (Ac-F[Cit]P[d(hLeu)][Bta]F-NH2) | 0.02 to 0.05 µM
14 | CC(=O)N[C@@H](Cc1ccccc1)C(=O)N[C@@H](CCCNC(N)=O)C(=O)N[C@@H](CO)C(=O)N[C@H](CCC(C)C)C(=O)N[C@@H](Cc1csc2ccccc12)C(=O)N[C@@H](Cc1ccccc1)C(N)=O [Compound 212, Ac-Phe-Cit-Ser-hle-Bta-Phe-NH2] (Ac-F[Cit]S[d(hLeu)][Bta]F-NH2) | 0.05 to 0.2 µM
15 | CC(=O)N[C@@H](Cc1ccccc1)C(=O)N[C@@H](CCN)C(=O)N1CC[C@H]1C(=O)N[C@H](CC1CCCCC1)C(=O)N[C@@H](Cc1csc2ccccc12)C(=O)N[C@@H](Cc1ccccc1)C(N)=O [Compound 213, Ac-Phe-Dab-Aze-cha-Bta-Phe-NH2] (Ac-F[Dab][Aze][dCha][Bta]F-NH2) | 0.02 to 0.05 µM
16 | CC(=O)N[C@@H](Cc1ccccc1)C(=O)N[C@@H](CCN)C(=O)N1CC[C@H]1C(=O)N[C@H](CCC(C)C)C(=O)N[C@@H](Cc1csc2ccccc12)C(=O)N[C@@H](Cc1ccccc1)C(N)=O [Compound 214, Ac-Phe-Dab-Aze-hle-Bta-Phe-NH2] (Ac-F[Dab][Aze][d(hLeu)][Bta]F-NH2) | 0.02 to 0.05 µM
17 | CC(=O)N[C@@H](Cc1ccccc1)C(=O)N[C@@H](CCN)C(=O)N1CCC[C@H]1C(=O)N[C@H](CC1CCCCC1)C(=O)N[C@@H](Cc1csc2ccccc12)C(=O)N[C@@H](Cc1ccccc1)C(N)=O [Compound 215, Ac-Phe-Dab-Pro-cha-Bta-Phe-NH2] (Ac-F[Dab]P[dCha][Bta]F-NH2) | 0.01 to 0.02 µM
18 | CC(=O)N[C@@H](Cc1ccccc1)C(=O)N[C@@H](CN)C(=O)N1CCC[C@H]1C(=O)N[C@H](CC1CCCCC1)C(=O)N[C@@H](Cc1csc2ccccc12)C(=O)N[C@@H](Cc1ccccc1)C(N)=O [Compound 216, Ac-Phe-Dap-Pro-cha-Bta-Phe-NH2] (Ac-F[Dap]P[dCha][Bta]F-NH2) | 0.05 to 0.2 µM
19 | CC(=O)NCS(=O)(=O)C[C@H](NC(=O)[C@H](Cc1ccccc1)NC(C)=O)C(=O)N1CCC[C@H]1C(=O)N[C@H](CC1CCCCC1)C(=O)N[C@@H](Cc1csc2ccccc12)C(=O)N[C@@H](Cc1ccccc1)C(N)=O [Compound 218, Ac-Phe-Eep-Pro-cha-Bta-Phe-NH2] (Ac-F[X7]P[dCha][Bta]F-NH2) | 0.05 to 0.2 µM
20 | CC(=O)N[C@@H](Cc1ccccc1)C(=O)N[C@@H](CCNC1=NCCN1)C(=O)N1CC[C@H]1C(=O)N[C@H](CC1CCCCC1)C(=O)N[C@@H](Cc1csc2ccccc12)C(=O)N[C@@H](Cc1ccccc1)C(N)=O [Compound 219, Ac-Phe-Fcn-Aze-cha-Bta-Phe-NH2] (Ac-F[X3][Aze][dCha][Bta]F-NH2) | 0.01 to 0.02 µM
21 | CC(=O)N[C@@H](Cc1ccccc1)C(=O)N[C@@H](CCNC1=NCCN1)C(=O)N1CCC[C@H]1C(=O)N[C@H](CC1CCCCC1)C(=O)N[C@@H](Cc1csc2ccccc12)C(=O)N[C@@H](Cc1ccccc1)C(N)=O [Compound 220, Ac-Phe-Fcn-Pro-cha-Bta-Phe-NH2] (Ac-F[X3]P[dCha][Bta]F-NH2) | 0.01 to 0.02 µM
22 | CC(=O)N[C@@H](Cc1ccccc1)C(=O)N[C@@H](CNC1=NCCN1)C(=O)N1CCC[C@H]1C(=O)N[C@H](CC1CCCCC1)C(=O)N[C@@H](Cc1csc2ccccc12)C(=O)N[C@@H](Cc1ccccc1)C(N)=O [Compound 222, Ac-Phe-Fco-Pro-cha-Bta-Phe-NH2] (Ac-F[X4]P[dCha][Bta]F-NH2) | 0.05 to 0.2 µM
23 | CC(=O)N[C@@H](Cc1ccccc1)C(=O)N[C@@H](CCCN(C1=NCCN1)C1=NCCN1)C(=O)N1CC[C@H]1C(=O)N[C@H](CC1CCCCC1)C(=O)N[C@@H](Cc1csc2ccccc12)C(=O)N[C@@H](Cc1ccccc1)C(N)=O [Compound 223, Ac-Phe-Fcp-Aze-cha-Bta-Phe-NH2] (Ac-F[X2][Aze][dCha][Bta]F-NH2) | 0.02 to 0.05 µM
24 | CC(=O)N[C@@H](Cc1ccccc1)C(=O)N[C@@H](CCCNC1=NCCN1)C(=O)N1CC[C@H]1C(=O)N[C@H](CC1CCCCC1)C(=O)N[C@@H](Cc1csc2ccccc12)C(=O)N[C@@H](Cc1ccccc1)C(N)=O [Compound 224, Ac-Phe-Ffa-Aze-cha-Bta-Phe-NH2] (Ac-F[Orn(2-imidazolinyl)][Aze][dCha][Bta]F-NH2) | 0.02 to 0.05 µM
25 | CC(=O)N[C@@H](Cc1ccccc1)C(=O)N[C@@H](CCCNC1=NCCN1)C(=O)N1CCC[C@H]1C(=O)N[C@H](CC1CCCCC1)C(=O)N[C@@H](Cc1csc2ccccc12)C(=O)N[C@@H](Cc1ccccc1)C(N)=O [Compound 225, Ac-Phe-Ffa-Pro-cha-Bta-Phe-NH2] (Ac-F[Orn(2-imidazolinyl)]P[dCha][Bta]F-NH2) | 0.02 to 0.05 µM
26 | CC(=O)N[C@@H](Cc1ccccc1)C(=O)N[C@@H](CCCNC1=NCCN1)C(=O)N1CCC[C@H]1C(=O)N[C@H](CCC(C)C)C(=O)N[C@@H](Cc1csc2ccccc12)C(=O)N[C@@H](Cc1ccccc1)C(N)=O [Compound 226, Ac-Phe-Ffa-Pro-hle-Bta-Phe-NH2] (Ac-F[Orn(2-imidazolinyl)]P[d(hLeu)][Bta]F-NH2) | 0.01 to 0.02 µM
27 | CC(=O)N[C@@H](Cc1ccccc1)C(=O)N[C@@H](CCCNS(C)(=O)=O)C(=O)N1CCC[C@H]1C(=O)N[C@H](CC1CCCCC1)C(=O)N[C@@H](Cc1csc2ccccc12)C(=O)N[C@@H](Cc1ccccc1)C(N)=O [Compound 227, Ac-Phe-G23-Pro-cha-Bta-Phe-NH2] (Ac-F[Orn](Ms)P[dCha][Bta]F-NH2) | 0.05 to 0.2 µM
